Assay results published in publication PMC6302136, “Quantitative Chemotherapeutic Profiling of Gynecologic Cancer Cell Lines Using Approved Drugs and Bioactive Compounds^” (Translational Oncology, 2018).
Read-outs that look alike come from different tables or passages of the source. *1 amine or outer side, *2 acyl side, *3 side chain or, on linkers, in order; H or OH if unused. Where a SMILES comes first, the peptide text is derived from it. Bridges are numbered along the chain shown (N, C = ends). Roman numbers before positions name the chains, in order. [ ]: non-standard residue; d: D form. Actinocin(9to1) = Cc1c2oc3c(C)ccc(C(=O)[*:1])c3nc-2c(C(=O)[*:2])c(N)c1=O; NMeV = CN[C@H](C(=O)O)C(C)C; Sar = CNCC(=O)O

Assays:
[1] = system: 11 gynecologic cancer cell lines; assay: qHTS ATPlite cell viability, gynecologic cancer cell lines (ovarian, cervical, placental); assay type: cell-based, human; details: for Cell Lines Active: number of the 11 cancer cell lines in which the compound is active (<1 μM potency, >70% efficacy)
Description: (§1) The ATPlite luminescence assay system assay kit was used to determine cell viability. The reagent was reconstituted and prepared as described by the manufacturer. To measure the cell death caused by the compounds, cells were cultured in 4 μl of media for 16 hours at 37°C with 5% CO2 in assay plates, followed by the addition of DMSO or 16 SOC chemotherapeutic compounds dissolved in DMSO. SOC compounds were dosed at 11 concentrations (1:3 dilution) in quadruplicate from 57.5 μM to 0.977 nM using the automated Wako 1536 Pin Tool workstation and incubated at 37°C with 5% CO2 for 24, 48, or 72 hours. Four microliters of ATPlite, the ATP monitoring reagent, was then added to each well of the assay plates using the Multidrop Combi reagent dispenser followed by incubation for 15 minutes at room temperature. The resulting luminescence was measured using the ViewLux plate reader. Data were normalized for each drug using the largest luminescence value as 100% full cell viability (0% cell killing) and to the smallest luminescence value 0% viability (100% cell killing).
(§2) A qHTS [79], in which each compound was assayed in five concentrations (0.092, 0.46, 2.3, 11.5, and 57.5 μM), was performed for the primary compound screen using the NPC [80] and NPACT drug libraries at NCATS. The OBGYN cancer and HEK 293T control cells were seeded into 1536-well assay plates at 1000 cells per 4 μl/well and incubated at 37°C in 5% CO2 for 48 hours. The ATPlite assay to determine the IC50 values for each compound was conducted as described above. Plates were processed on the fully integrated Kalypsys robotic system.

[2] = system: ovarian and placental cancer cell lines; assay: qHTS ATPlite cell viability, ovarian + placental cancer cell lines; assay type: cell-based, human; details: for IC50: Homo sapiens, 48 h; for Average SI: vs HEK 293T, >100 = inactive in HEK293T
Description: as §1, §2

TOV-21-G cells = assay: qHTS ATPlite cell viability, TOV-21-G cells; assay type: cell-based, human; details: for IC50: Homo sapiens, TOV21G, 48 h; for Avg SI: TOV-21-G selective compounds, vs HEK 293T, >100 = inactive in HEK293T
[3] = cited from earlier work
CAOV-3 cells = assay: ATP content (ATPlite) cell viability assay in CAOV-3 cells; assay type: cell-based, human; details: assay optimization
Description: as §1

PA-1 cells = assay: ATP content (ATPlite) cell viability assay in PA-1 cells; assay type: cell-based, human
HDAC 1/2/3 = details: against HDAC 1/2/3 only; cited from earlier work
HDAC 1/2/3/11 = details: inhibits only HDAC 1/2/3/11; cited from earlier work
HEK 293T cells [4] = system: HEK 293T cells; set-up: method as in PMID 31498718; details: CellTiterGlo, cited from earlier work; for IC50: independent screen
[5] = system: ovarian cancer cell lines; assay: qHTS ATPlite cell viability, ovarian cancer cell lines; assay type: cell-based, human
[6] = system: cervical cancer cell lines (HeLa, Ca Ski, C-33 A); assay: qHTS ATPlite cell viability, cervical cancer cell lines; assay type: cell-based; details: Homo sapiens
[7] = system: placental cancer cell lines (JAR, JEG-3); assay: qHTS ATPlite cell viability, placental cancer cell lines; assay type: cell-based, human; details: Homo sapiens, JEG-3; read-out: IC50 for the placental lines
Description: as §1
The ATPlite assay to determine the IC50 values for each compound was conducted as described above. Plates were processed on the fully integrated Kalypsys robotic system.

HEK 293T cells [8] = assay: cells; details: 48 h; for IC50: read-out: IC50 (HEK 293T toxicity)
Description: as §1, §2

HeLa cells = assay: qHTS ATPlite cell viability, HeLa cells; assay type: cell-based, human
[9] = system: ovarian and cervical cancer cell lines; assay: qHTS ATPlite cell viability, ovarian + cervical cancer cell lines; assay type: cell-based, human; details: Ovarian + cervical cancer cell line killer
Description: A qHTS [79], in which each compound was assayed in five concentrations (0.092, 0.46, 2.3, 11.5, and 57.5 μM), was performed for the primary compound screen using the NPC [80] and NPACT drug libraries at NCATS. […]

[10] = Ovarian + placental cancer cell line killer
[11] = Homo sapiens, average IC90 over the cell lines in which the compound is active, read-out: IC90
[12] = Pan-GYN cancer cell line killer, vs HEK 293T, >100 = inactive in HEK293T (efficacy <50%)
[13] = toxic compounds, selectivity index vs HEK 293T, average over all cancer cell lines, mean ± S.D.
[14] = HEK 293T, this screen (ATPlite)

## Cc1c2oc3c(C)ccc(C(=O)N[C@@H]4C(=O)N[C@H](C(C)C)C(=O)N5CCC[C@H]5C(=O)N(C)CC(=O)N(C)[C@@H](C(C)C)C(=O)O[C@@H]4C)c3nc-2c(C(=O)N[C@@H]2C(=O)N[C@H](C(C)C)C(=O)N3CCC[C@H]3C(=O)N(C)CC(=O)N(C)[C@@H](C(C)C)C(=O)O[C@@H]2C)c(N)c1=O [Actinomycin D] (I: T[dV]P[Sar][NMeV] / II: T[dV]P[Sar][NMeV]; ester I:1-I:C, II:1-II:C; linker I:N-II:N via Actinocin(9to1))
[1]; Homo sapiens, read-out: average IC90
  IC90: 512 nM
[2]; read-out: Average IC50 (μM)
  IC50: 0.78 ± 0.222 µM
[2]; [10]
  Average SI: >100
[2]; Ovarian + placental cancer cell line killer, listed as actinomycin D
  Average SI: > 100

## CCOc1cc2ncc(C#N)c(Nc3ccc(OCc4ccccn4)c(Cl)c3)c2cc1NC(=O)/C=C/CN(C)C [Neratinib]
TOV-21-G cells; read-out: Avg IC50 (μM)
  IC50: 0.619 µM
TOV-21-G cells
  Avg SI: >100

## CC(C)C[C@H](NC(=O)[C@H](Cc1ccccc1)NC(=O)c1cnccn1)B(O)O [Bortezomib]
[1]; [11]
  IC90: 218 nM
[1]; Homo sapiens, average over the cell lines in which the compound was active, read-out: average IC50
  IC50: 0.15 µM
[1]
  Cell Lines Active: 8
[3]; intravenous dose, read-out: Cmax
  Cmax: 580 nM

## CNC(=O)c1nn(C)c2c1C(C)(C)Cc1cnc(Nc3ccc(N4CCN(C)CC4)cc3)nc1-2 [Milciclib, N,1,4,4-tetramethyl-8-{[4-(4-methylpiperazin-1-yl)phenyl]amino}-4,5-dihydro-1H-py razolo[4,3-h]quinazoline-3-carboxamide]
TOV-21-G cells; TOV-21-G, confirmation screen, read-out: Avg IC50
  IC50: 0.0897 µM
TOV-21-G cells
  Avg SI: 50.1

## COc1cccc2c1C(=O)c1c(O)c3c(c(O)c1C2=O)C[C@@](O)(C(=O)CO)C[C@@H]3O[C@H]1C[C@H](N)[C@H](O)[C@H](C)O1 [Adriamycin]
CAOV-3 cells; Homo sapiens, Caov-3, 24 hours incubation
  IC50: 15900 nM
CAOV-3 cells; Homo sapiens, Caov-3, 48 hours incubation
  IC50: 98.2 nM
CAOV-3 cells; Homo sapiens, Caov-3, 72 hours incubation
  IC50: 73.7 nM
PA-1 cells; Homo sapiens, PA-1, 24 hours incubation, assay optimization, read-out: IC50 (PA-1)
  IC50: 109 nM
PA-1 cells; Homo sapiens, PA-1, 48 hours incubation, assay optimization, read-out: IC50 (PA-1)
  IC50: 11.8 nM
PA-1 cells; Homo sapiens, PA-1, 72 hours incubation, assay optimization, read-out: IC50 (PA-1)
  IC50: 3.59 nM
PA-1 cells; Homo sapiens, PA-1, confirmation screen, 48 h, read-out: Avg IC50
  IC50: 576 nM
PA-1 cells; PA-1 selective compounds, vs HEK 293T, >100 = inactive in HEK293T
  Avg SI: 7.02

## Nc1ccccc1NC(=O)c1ccc(CNC(=O)OCc2cccnc2)cc1 [Entinostat]
[1]; Homo sapiens, Pan-GYN cancer cell line killer, mean of all cell lines fulfilling criteria, 48 h, read-out: Average IC50
  IC50: 7.11 ± 6.62 µM
[1]; [12]
  Average SI: >100
[1]; Pan-GYN cancer cell line killer, vs HEK 293T, >100 = inactive in HEK293T (efficacy <50%), listed as entinostat
  Average SI: > 100
[3]; humans, 15 mg, read-out: Cmax
  Cmax: 460 nM
HDAC 1/2/3
  potency of HDAC inhibition: submicromolar potency

## Nc1ccccc1NC(=O)c1ccc(CNc2nccc(-c3cccnc3)n2)cc1 [Mocetinostat]
HDAC 1/2/3/11
  potency of HDAC inhibition: low micromolar potency or below
[1]; Homo sapiens, 48 h, read-out: Average IC50 (μM)
  IC50: 2.76 ± 1.98 µM
[1]; [12]
  Average SI: >100
[1]; Pan-GYN cancer cell line killer, vs HEK 293T, >100 = inactive in HEK293T (efficacy <50%), listed as mocetinostat
  Average SI: > 100
[3]; 10 mg/kg, in humans, read-out: Cmax
  Cmax: ~21400 nM
[3]; 40 mg/kg, in humans, read-out: Cmax
  Cmax: 75700 nM

## Cc1[nH]c2ccccc2c1CCNCc1ccc(/C=C/C(=O)NO)cc1 [Panobinostat]
HEK 293T cells [4]
  Efficacy (%) (independent screen, HEK 293T): 85.5%
  Independent Screen (confirmation of HEK 293T toxicity): Confirmed toxic
  IC50: 162 nM
[5]; Homo sapiens, read-out: IC50 for the ovarian lines
  IC50: 343 nM
[1]; [11]
  IC90: 719 nM
[1]; Homo sapiens, toxic compounds, average over all cancer cell lines, 48 h, mean ± S.D., read-out: Average IC50
  IC50: 0.355 ± 0.268 µM
[1]
  Cell Lines Active: 11
[1]; [13]
  Average SI: 0.92 ± 0.57
[6]
  IC50: 224 nM
[3]; oral administration, read-out: Cmax human plasma concentration, range
  Cmax: 38 to 119 nM
[3]; oral administration, read-out: median Cmax human plasma concentration
  Cmax: 61 nM
[7]
  IC50: 516 nM
HEK 293T cells [8]; [14]
  Efficacy (%) (HEK 293T toxicity): 82.6%
HEK 293T cells [8]; Homo sapiens, HEK-293T
  IC50: 210 nM
HEK 293T cells [8]; human
  toxicity to HEK 293T cells: equally toxic to HEK 293T cells

## CC(=O)OC(C)(C)/C=C/C(=O)[C@](C)(O)[C@H]1[C@H](O)C[C@@]2(C)[C@@H]3CC=C4[C@H](C[C@H](O)C(=O)C4(C)C)[C@]3(C)C(=O)C[C@]12C [Curcubitacin B]
CAOV-3 cells; 24 hours incubation
  IC50: 18.1 nM
CAOV-3 cells; 48 hours incubation
  IC50: ~20.6 nM
CAOV-3 cells; 72 hours incubation
  IC50: 22.2 nM
PA-1 cells; 48 hours incubation, assay optimization, read-out: IC50 (PA-1)
  IC50: 63.2 nM
PA-1 cells; 72 hours incubation, assay optimization, read-out: IC50 (PA-1)
  IC50: 61.8 nM

## COc1cc(N2CCC(N3CCN(C)CC3)CC2)ccc1Nc1ncc(Cl)c(Nc2ccccc2S(=O)(=O)C(C)C)n1 [NVP-TAE684]
HeLa cells; HeLa selective compounds, vs HEK 293T
  Avg SI: 28.0
HeLa cells; HeLa, confirmation screen, 48 h
  IC50: 835 nM
HEK 293T cells [4]
  Efficacy (%) (independent screen, HEK 293T): 126%
  Independent Screen (confirmation of HEK 293T toxicity): Confirmed toxic
  IC50: 3650 nM
[1]; toxic compounds, average over all cancer cell lines, 48 h, mean ± S.D., read-out: Average IC50
  IC50: 15.7 ± 10 µM
[1]; [13]
  Average SI: 4.87 ± 7.61
HEK 293T cells [8]; [14]
  Efficacy (%) (HEK 293T toxicity): 91.8%
  IC50: 23400 nM

## Cc1cc(CN2CCN(c3c(Br)cnc4nc(-c5ccc(N6CCN(C)CC6)cc5)[nH]c34)CC2)no1 [CCT137690]
[9]; mean of cell lines fulfilling criteria, 48 h
  IC50: 20000 ± 7020 nM
[9]; vs HEK 293T, >100 = inactive in HEK293T
  Average SI: >100

## Cc1cnc(Nc2ccc(OCCN3CCCC3)cc2)nc1Nc1cccc(S(=O)(=O)NC(C)(C)C)c1 [Fedratinib]
[5]; SI of 5 or greater, six ovarian lines
  selective killing of ovarian cancer lines: selectivity killed all six ovarian cancer lines
[2]; Ovarian + placental cancer cell line killer, mean of cell lines fulfilling criteria, read-out: Average IC50
  IC50: 13.1 ± 7.51 µM
[2]; [10]
  Average SI: >100
[2]; Ovarian + placental cancer cell line killer, listed as fedratinib
  Average SI: > 100
